Reference: patent US12215332B2, “Method of increasing resistance against soybean rust in transgenic plants by increasing the scoparone” (BASF PLANT SCIENCE COMPANY GMBH, priority 2018, dated 2025)
“Also recorded” adds a separate entry of the source.

Assays:
[1] = ABTS assay of coumarins' antioxidant activity; assay type: physicochemical; conditions: absorbance at 734 nm, 7 minutes at 37° C., compared to scopoletin, scopolin, umbelliferone, ascorbic acid and Trolox
Procedure: Antioxidant activity of scoparone was determined in an 2,2′-azinobis-(3-ethylbenzothiazoline-6-sulfonic acid) (ABTS)-assay and compared to authentic analytical standards of scopoletin, scopolin, umbelliferone, ascorbic acid and Trolox (6-hydroxy-2,5,7,8-tetramethylchroman-2-carboxylic acid).
The 2,2′-azinobis-(3-ethylbenzothiazoline-6-sulfonic acid (ABTS)-assay10 was applied to compare the antioxidant activity of different coumarins to Trolox and ascorbic acid as references. The radical monocation of ABTS (ABTS·+) was generated by oxidation of ABTS with potassium persulfate (K2S2O8) This was done by mixing aqueous ABTS (7 mM) and K2S2O8 (2.4 mM) in a 1:1 ratio (v/v). The mixture was placed in the dark and incubated at room temperature for 16 hours and then diluted with ethanol to an absorbance of 0.7 (±0.02) at 734 nm. All solutions were brought to a temperature of 37° C. Next, 990 μl of ABTS·+ was mixed with 10 μl of a test solution containing different concentrations of a coumarin standard. Ascorbic acid and Trolox served as positive and ethanol as the blanc control. Mixtures were incubated at 37° C. in a thermomixer (700 rpm) for 7 minutes. Absorbance at 734 nm was measured in a spectrophotometer following incubation for 7 minutes at 37° C. in a thermomixer (700 rpm).

[2] = system: Phakopsora pachyrhizi uredospores; assay: In vitro growth inhibition of Phakopsora pachyrhizi: appressoria formation on glass slides; assay type: cell-based
Procedure: FIG. 2 depicts the inhibition of P. pachyrhitzi appressoria formation by scoparone in a concentration-dependent manner. P. pachyrhizi uredospores were resuspended in H2O supplemented with Tween-20 and 10 μM, 25 μM, 50 μM, 100 μM, 200 μM and 400 μM scoparone (solved in 0.1% DMSO) and incubated on glass slides in high humidity conditions. Treatment with 0.1% DMSO and H2O served as controls. The appressoria formation rate was determined by quantitative microscopic analysis. Only spores showing germtube formation with a visible thickening of the germ tube tip were counted as appressoria formation.
Uredospores of P. pachyrhizi (isolate BRO5) were harvested from heavily infected soybean leaves and equally suspended in water by shaking for 25 s at 5′000 rpm on a Precellys 24 homogenizer in the absence of homogenizing beads (Bertin instruments). […] Germination of spores and fungal development was evaluated by counting developing appressoria in the presence of 10-400 μM scoparone (in 0.1% DMSO) and compared to fungal proliferation in presence of H2O or 0.1% DMSO only (controls).
The germination rate and appressoria formation rate was determined by quantitative microscopic analysis. Spores showing a visible germ tube formation but no thickening of the germ tube tip were counted as “germinated”, whereas the presence of a thickened germ tube tip indicated the formation of an appressoria. […]

## COc1cc2ccc(=O)oc2cc1OC [scoparone, 6,7-dimethoxycoumarin]
[1]
  antioxidant activity: lacks antioxidant activity
[2]; 400 μM scoparone
  formation of appressoria in-vitro: completely abolishes the formation of appressoria
[2]; 10, 25, 50, 100, 200 and 400 μM scoparone in 0.1% DMSO, spores in H2O with Tween-20 on glass slides, controls 0.1% DMSO and H2O
  appressoria formation rate: inhibiting appressoria formation in a dose dependent manner; also recorded: decreases the formation of appressoria in a dose dependent manner
